In patent US20070128217A1 (priority 2003, published 2007):

Key:
[1] = test system: rabbit serum obtained by immunizing a rabbit with the SARS-CoV strain Frankfurt 1; assay type: binding; parameters: Binding of a rabbit serum to linear peptides / Binding of a rabbit serum to looped peptides / Rabbit serum linear peptides / Rabbit serum looped peptides / Binding of a rabbit serum to linear peptides of protein N of SARS-CoV Urbani (Rabbit serum linear peptides) / Binding of a rabbit serum to looped/cyclic peptides of protein N of SARS-CoV Urbani (Rabbit serum looped peptides): unit not given here
[2] = test system: antibodies in sera from SARS patients (sera 1a, 1b, 2, 6, 37, 62, London, SARS-yellow, SARS-green); assay type: binding, human; parameters: Binding of serum 6 to linear peptides of protein X1 of SARS-CoV Urbani / Binding of serum 37 to linear peptides of protein X1 of SARS-CoV Urbani / Binding of serum 6 to looped/cyclic peptide (PEPSCAN-ELISA) / Binding of serum 37 to looped/cyclic peptide (PEPSCAN-ELISA) / Binding of serum 37 to looped/cyclic peptides of protein X1 of SARS-CoV Urbani / Binding of serum 6 to linear peptides of protein X2 / Binding of serum 37 to linear peptides of protein X2 / Binding of serum 37 to looped/cyclic peptides of protein X2 of SARS-CoV Urbani / Binding of serum 6 to linear peptides of protein M of SARS-CoV Urbani / Binding of serum 37 to linear peptides of protein M of SARS-CoV Urbani / Binding of serum 6 to looped/cyclic peptides of protein M of SARS-CoV Urbani / Binding of serum 37 to looped/cyclic peptides of protein M of SARS-CoV Urbani / Binding of serum 6 to linear peptides of protein X3 of SARS-CoV Urbani / Binding of serum 37 to linear peptides of protein X3 of SARS-CoV Urbani / Binding of serum 37 to looped/cyclic peptides of protein X3 of SARS-CoV Urbani / Binding of serum 6 to linear peptides of protein X4 of SARS-CoV Urbani / Binding of serum 37 to linear peptides of protein X4 of SARS-CoV Urbani / Binding of serum 37 to looped/cyclic peptides of protein X4 of SARS-CoV Urbani / Binding of serum 6 to linear peptides of protein X5 of SARS-CoV Urbani / Binding of serum 37 to linear peptides of protein X5 of SARS-CoV Urbani / Binding of serum 37 to looped/cyclic peptides of protein X5 of SARS-CoV Urbani / Binding of serum 6 to linear peptides of protein N of SARS-CoV Urbani / Binding of serum 37 to linear peptides of protein N of SARS-CoV Urbani / Binding of serum 6 to linear peptide (PEPSCAN-ELISA) / Binding of serum 1a to looped/cyclic peptides of protein N of SARS-CoV Urbani / Binding of serum 1b to looped/cyclic peptides of protein N of SARS-CoV Urbani / Binding of serum 2 to looped/cyclic peptides of protein N of SARS-CoV Urbani / Binding of serum 6 to looped/cyclic peptides of protein N of SARS-CoV Urbani / Binding of serum 37 to looped/cyclic peptides of protein N of SARS-CoV Urbani / Binding of serum 62 to looped/cyclic peptides of protein N of SARS-CoV Urbani / Binding of serum London to looped/cyclic peptides of protein N of SARS-CoV Urbani / Binding of serum SARS-green to looped/cyclic peptides of protein N of SARS-CoV Urbani: unit not given here
[3] = test system: control sera (pooled serum of ten healthy LUMC hospital workers; commercial negative donor pooled serum from the Dutch bloodbank); assay type: binding, human; parameters: Binding of Control serum LUMC to linear peptides / Binding of Control serum Blood-bank to linear peptides / Binding of Control serum LUMC to looped peptides / Binding of Control Serum Blood-Bank to Looped peptides / Binding of Control serum LUMC to linear peptides of the protein M of SARS-CoV Urbani / Binding of Control serum Blood-bank to linear peptides of the protein M of SARS-CoV Urbani / Binding of Control serum LUMC to looped peptides of the protein M of SARS-CoV Urbani / Binding of Control Serum Blood-Bank to Looped peptides of the protein M of SARS-CoV Urbani: unit not given here

Sequence: THITMTTVYHITVSQ
- Binding of a rabbit serum to linear peptides [1]: 0.7
- Binding of a rabbit serum to looped peptides [1]: 0.4
- Binding of serum 1a to linear peptides of protein X2 [2]: 0.6
- Binding of serum 1a to looped/cyclic peptides of protein X2 of SARS-CoV Urbani [2]: 0.6
- Binding of serum 1b to linear peptides of protein X2 [2]: 0.5
- Binding of serum 1b to looped/cyclic peptides of protein X2 of SARS-CoV Urbani [2]: 0.6
- Binding of serum 2 to linear peptides of protein X2 [2]: 0.4
- Binding of serum 2 to looped/cyclic peptides of protein X2 of SARS-CoV Urbani [2]: 0.3
- Binding of serum 6 to linear peptides of protein X2 [2]: 0.6
- Binding of serum 6 to looped/cyclic peptides of protein X2 of SARS-CoV Urbani [2]: 0.2
- Binding of serum 37 to linear peptides of protein X2 [2]: 0.7
- Binding of serum 37 to looped/cyclic peptides of protein X2 of SARS-CoV Urbani [2]: 0.5
- Binding of serum 62 to linear peptides of protein X2 [2]: 0.4
- Binding of serum 62 to looped/cyclic peptides of protein X2 of SARS-CoV Urbani [2]: 0.6
- Binding of serum London to linear peptides of protein X2 [2]: 0.4
- Binding of serum London to looped/cyclic peptides of protein X2 of SARS-CoV Urbani [2]: 0.2
- Binding of serum SARS-green to linear peptides of protein X2 [2]: 0.4
- Binding of serum SARS-green to looped/cyclic peptides of protein X2 of SARS-CoV Urbani [2]: 0.3
- Binding of serum SARS-yellow to linear peptides of protein X2 [2]: 0.5
- Binding of serum SARS-yellow to looped/cyclic peptides of protein X2 of SARS-CoV Urbani [2]: 0.5
- Binding of Control Serum Blood-Bank to Looped peptides [3]: 0.6
- Binding of Control serum Blood-bank to linear peptides [3]: 0.3
- Binding of Control serum LUMC to linear peptides [3]: 0.8
- Binding of Control serum LUMC to looped peptides [3]: 0.7

Sequence: TIVTRPLMESELVIG
- Rabbit serum linear peptides [1]: 0.3
- Rabbit serum looped peptides [1]: 0.3
- Binding of serum 1a to linear peptides of protein M of SARS-CoV Urbani [2]: 0.8
- Binding of serum 1b to linear peptides of protein M of SARS-CoV Urbani [2]: 0.6
- Binding of serum 2 to linear peptides of protein M of SARS-CoV Urbani [2]: 0.6
- Binding of serum 6 to linear peptides of protein M of SARS-CoV Urbani [2]: 0.4
- Binding of serum 37 to linear peptides of protein M of SARS-CoV Urbani [2]: 0.7
- Binding of serum 62 to linear peptides of protein M of SARS-CoV Urbani [2]: 0.9
- Binding of serum London to linear peptides of protein M of SARS-CoV Urbani [2]: 0.3
- Binding of serum SARS-green to linear peptides of protein M of SARS-CoV Urbani [2]: 0.3
- Binding of serum SARS-yellow to linear peptides of protein M of SARS-CoV Urbani [2]: 0.1
- Recognition of the peptide by sera of SARS-CoV infected individuals, and form (linear, looped/cyclic) in which it is recognized [2]: recognized in looped/cyclic form
- Binding of Control Serum Blood-Bank to Looped peptides of the protein M of SARS-CoV Urbani [3]: 0.9
- Binding of Control serum Blood-bank to linear peptides of the protein M of SARS-CoV Urbani [3]: 0.8
- Binding of Control serum LUMC to linear peptides of the protein M of SARS-CoV Urbani [3]: 0.5
- Binding of Control serum LUMC to looped peptides of the protein M of SARS-CoV Urbani [3]: 1.0

Sequence: TIYSHLLLVAAGMEA
- Binding of a rabbit serum to linear peptides [1]: 0.1
- Binding of a rabbit serum to looped peptides [1]: 0.4
- Binding of serum 1a to linear peptides of protein X1 of SARS-CoV Urbani [2]: 0.6
- Binding of serum 1a to looped/cyclic peptide (PEPSCAN-ELISA) [2]: 0.5
- Binding of serum 1b to linear peptides of protein X1 of SARS-CoV Urbani [2]: 0.5
- Binding of serum 1b to looped/cyclic peptide (PEPSCAN-ELISA) [2]: 0.4
- Binding of serum 2 to linear peptides of protein X1 of SARS-CoV Urbani [2]: 0.4
- Binding of serum 2 to looped/cyclic peptide (PEPSCAN-ELISA) [2]: 0.3
- Binding of serum 6 to linear peptides of protein X1 of SARS-CoV Urbani [2]: 0.3
- Binding of serum 6 to looped/cyclic peptide (PEPSCAN-ELISA) [2]: 0.3
- Binding of serum 37 to linear peptides of protein X1 of SARS-CoV Urbani [2]: 0.5
- Binding of serum 37 to looped/cyclic peptide (PEPSCAN-ELISA) [2]: 0.5
- Binding of serum 62 to linear peptides of protein X1 of SARS-CoV Urbani [2]: 0.4
- Binding of serum 62 to looped/cyclic peptide (PEPSCAN-ELISA) [2]: 0.5
- Binding of serum London to linear peptides of protein X1 of SARS-CoV Urbani [2]: 0.2
- Binding of serum London to looped/cyclic peptide (PEPSCAN-ELISA) [2]: 0.2
- Binding of serum SARS-green to linear peptides of protein X1 of SARS-CoV Urbani [2]: 0.3
- Binding of serum SARS-green to looped/cyclic peptide (PEPSCAN-ELISA) [2]: 0.2
- Binding of serum SARS-yellow to linear peptides of protein X1 of SARS-CoV Urbani [2]: 0.5
- Binding of serum SARS-yellow to looped/cyclic peptide (PEPSCAN-ELISA) [2]: 0.3
- Binding of Control Serum Blood-Bank to Looped peptides [3]: 0.5
- Binding of Control serum Blood-bank to linear peptides [3]: 0.4
- Binding of Control serum LUMC to linear peptides [3]: 0.4
- Binding of Control serum LUMC to looped peptides [3]: 0.6

Sequence: TLACFVLAAVYRINW
- Rabbit serum linear peptides [1]: 0.5
- Rabbit serum looped peptides [1]: 0.1
- Binding of serum 1a to linear peptides of protein M of SARS-CoV Urbani [2]: 0.7
- Binding of serum 1a to looped/cyclic peptides of protein M of SARS-CoV Urbani [2]: 0.7
- Binding of serum 1b to linear peptides of protein M of SARS-CoV Urbani [2]: 0.5
- Binding of serum 1b to looped/cyclic peptides of protein M of SARS-CoV Urbani [2]: 0.5
- Binding of serum 2 to linear peptides of protein M of SARS-CoV Urbani [2]: 0.5
- Binding of serum 2 to looped/cyclic peptides of protein M of SARS-CoV Urbani [2]: 0.6
- Binding of serum 6 to linear peptides of protein M of SARS-CoV Urbani [2]: 0.3
- Binding of serum 6 to looped/cyclic peptides of protein M of SARS-CoV Urbani [2]: 0.7
- Binding of serum 37 to linear peptides of protein M of SARS-CoV Urbani [2]: 0.8
- Binding of serum 37 to looped/cyclic peptides of protein M of SARS-CoV Urbani [2]: 0.6
- Binding of serum 62 to linear peptides of protein M of SARS-CoV Urbani [2]: 0.8
- Binding of serum 62 to looped/cyclic peptides of protein M of SARS-CoV Urbani [2]: 0.6
- Binding of serum London to linear peptides of protein M of SARS-CoV Urbani [2]: 0.3
- Binding of serum London to looped/cyclic peptides of protein M of SARS-CoV Urbani [2]: 0.3
- Binding of serum SARS-green to linear peptides of protein M of SARS-CoV Urbani [2]: 0.3
- Binding of serum SARS-green to looped/cyclic peptides of protein M of SARS-CoV Urbani [2]: 0.2
- Binding of serum SARS-yellow to linear peptides of protein M of SARS-CoV Urbani [2]: 0.0
- Binding of serum SARS-yellow to looped/cyclic peptides of protein M of SARS-CoV Urbani [2]: 0.5
- Binding of Control Serum Blood-Bank to Looped peptides of the protein M of SARS-CoV Urbani [3]: 0.8
- Binding of Control serum Blood-bank to linear peptides of the protein M of SARS-CoV Urbani [3]: 0.5
- Binding of Control serum LUMC to linear peptides of the protein M of SARS-CoV Urbani [3]: 0.2
- Binding of Control serum LUMC to looped peptides of the protein M of SARS-CoV Urbani [3]: 0.7
